Measured values published in patent US6020341A, “Enediyne quinone imines and methods of preparation and use thereof” (priority 1997, dated 2000).
Like-named read-outs stand apart in the source and are kept apart here.

Key:
[1] = system: Human promyelocytic leukemic cell (HL-60); test: Cytotoxicity, HL-60; assay type: cell-based; conditions: for IC50 / IC90: Homo sapiens; for IC90: read-out: Cytotoxic Concentration IC90
Excerpt: (§1) | cell growth by 50% (IC50) in μM.

CCRF-CEM/VBL cells = test: Cytotoxicity, CCRF-CEM resistant to vinblastine; assay type: cell-based, human; conditions: for IC50 / IC90: Homo sapiens, CCRF-CEM; for IC90: read-out: Cytotoxic Concentration IC90
Excerpt: as §1

CCRF-CEM/VM-1 cells = test: Cytotoxicity, CCRF-CEM/VM-1; assay type: cell-based, human; conditions: for IC50 / IC90: Homo sapiens, CCRF-CEM; for IC90: read-out: Cytotoxic Concentration IC90
Excerpt: as §1

[2] = system: Human breast adenocarcinoma cells (SK-Br-3); test: Cytotoxicity, SK-Br-3; assay type: cell-based; conditions: for IC50 / IC90: Homo sapiens; for IC90: read-out: Cytotoxic Concentration IC90
Excerpt: as §1

[3] = system: Human testicular teratocarcinoma cells (833K); test: Cytotoxicity, 833K; assay type: cell-based; conditions: for IC50 / IC90: Homo sapiens, 833K; for IC90: read-out: Cytotoxic Concentration IC90
Excerpt: as §1

[4] = system: Chinese hamster lung cells resistant to actinomycin D (DC-3F/ADII); test: Cytotoxicity, DC-3F/ADII; assay type: cell-based; conditions: for IC50 / IC90: Cricetulus griseus, DC3F; for IC90: read-out: Cytotoxic Concentration IC90
Excerpt: as §1

MT-4 leukemic cells = test: Growth inhibition, XTT assay, MT-4; assay type: cell-based; conditions: Table 8, MT-4, XTT
Experimental: (§2) Cells were platted on day 1, drug was added on day 2, and XTT assays (for HL-60, MT-2, MT-4 leukemic cells) or SRB assays (for 833K and SK-Br-3 solid tumor cells) were carried out on day 5.

833K solid tumor cells = test: Growth inhibition, SRB assay, 833K; assay type: cell-based; conditions: Homo sapiens, Table 8, 833K
Experimental: as §2

[5] = system: SK-Br-3 solid tumor cells; test: Growth inhibition, SRB assay, SK-Br-3; assay type: cell-based; conditions: Homo sapiens, Table 8, SKBr-3, SRB
Experimental: as §2

DC-3F cells = test: Single drug effect, SRB assay, DC-3F; assay type: cell-based, Chinese hamster; conditions: Cricetulus griseus, DC3F, Table 10, DC-3F, 72 h, read-out: Dm
MT4 cells = test: Cytotoxicity, MT4; assay type: cell-based; conditions: Table 15, MT4
[6] = system: Lewis lung adenocarcinoma; test: Anticancer activity in B6D2F1 mice bearing Lewis lung adenocarcinoma; assay type: in vivo, mouse
Experimental: ^a Tumor (2.5 × 10E6 cells) was inoculated S.C. on day (-3).
Treatment started on day 1, I.P., Q.D.X5. Control had 6 mice and each dos
had 5 mice. Tumor size was evaluated on day 7, day 10 and day 14.

sarcoma 180 = test: Antitumor activity against sarcoma 180 in B6D2F1 mice, b.i.d.x5; assay type: in vivo, mouse
Excerpt: ^a Tumor (3 × 10^6 cells) was inoculated S.C. on day -3.
Antitumor treatment started on day 1, b.i.d.X5, IP.

[7] = Table 14, vinblastine-resistant (VLB100)
[8] = Table 3, CCRF-CEM/VBL, EQI-6 = (1)
[9] = Table 3, CCRF-CEM/VM-1, EQI-6 = (1)
[10] = Table 4, DC-3F/ADII, EQI-6 = (1)
[11] = Table 11, 0.5 mg/kg i.p. Q.D.X5, Day 7
[12] = Table 11, 0.5 mg/kg i.p. Q.D.X5, Day 10
[13] = Table 11, 1.0 mg/kg i.p. Q.D.X5, Day 7
[14] = Table 11, 1.0 mg/kg i.p. Q.D.X5, Day 10
[15] = Table 11, 1.5 mg/kg i.p. Q.D.X5, Day 7
[16] = Table 11, 1.5 mg/kg i.p. Q.D.X5, Day 10
[17] = Table 11, 2.0 mg/kg i.p. Q.D.X5, Day 7
[18] = Table 11, 2.0 mg/kg i.p. Q.D.X5, Day 10
[19] = Table 12, 0.15 mg/kg IP b.i.d.X5, Day 7
[20] = Table 12, 0.15 mg/kg IP b.i.d.X5, Day 14
[21] = Table 12, 0.2 mg/kg IP b.i.d.X5, Day 7
[22] = Table 12, 0.2 mg/kg IP b.i.d.X5, Day 14
[23] = Table 12, 0.3 mg/kg IP b.i.d.X5, Day 7
[24] = Table 12, 0.3 mg/kg IP b.i.d.X5, Day 14

CO[C@@]12[C@H](COC(N)=O)C3=C(C(=O)C(C)=C(N)C3=O)N1C[C@@H]1N[C@@H]12 [mitomycin C]
IC50 ([1]; HL-60, Table 1, HL-60, read-out: IC50): 48.4 nM
IC50 ([1]; HL-60, Table 2, HL60, read-out: concentration required to inhibit cell growth by 50% (IC50)): 48 nM
IC50 ([1]; HL-60, Table 3, HL-60, read-out: Cytotoxic Concentration IC50): 48.4 nM
IC90 ([1]; HL-60, Table 3, HL-60): 197 nM
IC50 ([1]; HL-60, Table 15, HL-60, read-out: Cytotoxic Concentration IC50): 51 nM
IC90 ([1]; HL-60, Table 15, HL-60): 167 nM
Cytotoxic Concentration IC95 ([1]; Table 3, HL-60): 319 nM
ratio of IC50 to EQI-6 (in parentheses) ([1]; Table 3, HL-60, EQI-6 = (1)): 83.4 ×
ratio of IC90 to EQI-6 (in parentheses) ([1]; Table 3, HL-60, EQI-6 = (1)): 75.8 ×
ratio of IC95 to EQI-6 (in parentheses) ([1]; Table 3, HL-60, EQI-6 = (1)): 72.5 ×
Cytotoxic Concentration IC95 ([1]; Table 15, HL-60): 250 nM
IC50 (CCRF-CEM/VBL cells; Table 2, CCRF/VBL (MDR/pg-p), read-out: concentration required to inhibit cell growth by 50% (IC50)): 566 nM
IC50 (CCRF-CEM/VBL cells; Table 3, CCRF-CEM/VBL, read-out: Cytotoxic Concentration IC50): 566 nM
IC90 (CCRF-CEM/VBL cells; Table 3, CCRF-CEM/VBL): 2330 nM
IC50 (CCRF-CEM/VBL cells; Table 14, vinblastine-resistant (VLB100), read-out: Cytotoxic Concentration IC50): 917 nM
IC90 (CCRF-CEM/VBL cells; [7]): 2400 nM
Cytotoxic Concentration IC95 (CCRF-CEM/VBL cells; Table 3, CCRF-CEM/VBL): 3770 nM
ratio of IC50 to EQI-6 (in parentheses) (CCRF-CEM/VBL cells; [8]): 299.5 ×
ratio of IC90 to EQI-6 (in parentheses) (CCRF-CEM/VBL cells; [8]): 375.8 ×
ratio of IC95 to EQI-6 (in parentheses) (CCRF-CEM/VBL cells; [8]): 405.4 ×
Cytotoxic Concentration IC95 (CCRF-CEM/VBL cells; [7]): 3327 nM
IC50 (CCRF-CEM/VM-1 cells; Table 2, CCRF/VM-1 (MDR/TopoII), read-out: concentration required to inhibit cell growth by 50% (IC50)): 216 nM
IC50 (CCRF-CEM/VM-1 cells; Table 3, CCRF-CEM/VM-1, read-out: Cytotoxic Concentration IC50): 216 nM
IC90 (CCRF-CEM/VM-1 cells; Table 3, CCRF-CEM/VM-1): 895 nM
IC50 (CCRF-CEM/VM-1 cells; Table 14, CCRF-CEM/VM-1, read-out: Cytotoxic Concentration IC50): 113 nM
IC90 (CCRF-CEM/VM-1 cells; Table 14, CCRF-CEM/VM-1): 675 nM
Cytotoxic Concentration IC95 (CCRF-CEM/VM-1 cells; Table 3, CCRF-CEM/VM-1): 1373 nM
ratio of IC50 to EQI-6 (in parentheses) (CCRF-CEM/VM-1 cells; [9]): 113.7 ×
ratio of IC90 to EQI-6 (in parentheses) (CCRF-CEM/VM-1 cells; [9]): 45.5 ×
ratio of IC95 to EQI-6 (in parentheses) (CCRF-CEM/VM-1 cells; [9]): 90.9 ×
Cytotoxic Concentration IC95 (CCRF-CEM/VM-1 cells; Table 14, CCRF-CEM/VM-1): 1239 nM
IC50 ([2]; SK-BR-3, Table 2, SK-Br-3 (Breast), read-out: concentration required to inhibit cell growth by 50% (IC50)): 993 nM
IC50 ([2]; SK-BR-3, Table 4, SK-Br-3, read-out: Cytotoxic Concentration IC50): 993 nM
IC90 ([2]; SK-BR-3, Table 4, SK-Br-3): 21800 nM
IC50 ([2]; SK-BR-3, Table 13, SK-Br-3, read-out: Cytotoxic Concentration IC50): 2340 nM
IC90 ([2]; SK-BR-3, Table 13, SK-Br-3): 62900 nM
Cytotoxic Concentration IC95 ([2]; Table 4, SK-Br-3): 62300 nM
ratio of IC50 to EQI-6 (in parentheses) ([2]; Table 4, SK-Br-3, EQI-6 = (1)): 29.2 ×
ratio of IC90 to EQI-6 (in parentheses) ([2]; Table 4, SK-Br-3, EQI-6 = (1)): 16.6 ×
ratio of IC95 to EQI-6 (in parentheses) ([2]; Table 4, SK-Br-3, EQI-6 = (1)): 187.7 ×
Cytotoxic Concentration IC95 ([2]; Table 13, SK-Br-3): 192890 nM
IC50 ([3]; Table 2, 833K (Testicular), read-out: concentration required to inhibit cell growth by 50% (IC50)): 318 nM
IC50 ([3]; Table 4, 833k, read-out: Cytotoxic Concentration IC50): 318 nM
IC90 ([3]; Table 4, 833k): 1530 nM
IC50 ([3]; Table 15, 833K, read-out: Cytotoxic Concentration IC50): 394 nM
IC90 ([3]; Table 15, 833K): 2290 nM
Cytotoxic Concentration IC95 ([3]; Table 4, 833k): 2610 nM
ratio of IC50 to EQI-6 (in parentheses) ([3]; Table 4, 833k, EQI-6 = (1)): 45.4 ×
ratio of IC90 to EQI-6 (in parentheses) ([3]; Table 4, 833k, EQI-6 = (1)): 61.2 ×
ratio of IC95 to EQI-6 (in parentheses) ([3]; Table 4, 833k, EQI-6 = (1)): 66.9 ×
Cytotoxic Concentration IC95 ([3]; Table 15, 833K): 4155 nM
IC50 ([4]; Table 2, DC-3F/ADII (MDR/Actinomycin D), read-out: concentration required to inhibit cell growth by 50% (IC50)): 113 nM
IC50 ([4]; Table 4, DC-3F/ADII, read-out: Cytotoxic Concentration IC50): 113 nM
IC90 ([4]; Table 4, DC-3F/ADII): 380 nM
IC50 ([4]; Table 13, DC-3F/ADII, read-out: Cytotoxic Concentration IC50): 74 nM
IC90 ([4]; Table 13, DC-3F/ADII): 264 nM
Cytotoxic Concentration IC95 ([4]; Table 4, DC-3F/ADII): 575 nM
ratio of IC50 to EQI-6 (in parentheses) [4, 10]: 92.2 ×
ratio of IC90 to EQI-6 (in parentheses) [4, 10]: 24.7 ×
ratio of IC95 to EQI-6 (in parentheses) [4, 10]: 26.9 ×
Cytotoxic Concentration IC95 ([4]; Table 13, DC-3F/ADII): 406 nM
IC50 (MT-4 leukemic cells): 150 nM
IC50 (833K solid tumor cells): 300 nM
IC50 [5]: 300 nM
IC50 (DC-3F cells): 59 nM
IC50 (MT4 cells; Homo sapiens, read-out: Cytotoxic Concentration IC50): 115 nM
IC90 (MT4 cells; Homo sapiens, read-out: Cytotoxic Concentration IC90): 253 nM
Cytotoxic Concentration IC95 (MT4 cells): 331 nM
AWC (average weight change) [6, 11]: -1.5 g
Avg Tumor Vol (T/C) [6, 11]: 0.530
AWC (average weight change) [6, 12]: -0.1 g
Avg Tumor Vol (T/C) [6, 12]: 0.712
AWC (average weight change) [6, 13]: -0.8 g
Avg Tumor Vol (T/C) [6, 13]: 0.380
AWC (average weight change) [6, 14]: -0.9 g
Avg Tumor Vol (T/C) [6, 14]: 0.451
AWC (average weight change) [6, 15]: -1.5 g
Avg Tumor Vol (T/C) [6, 15]: 0.340
AWC (average weight change) [6, 16]: -1.3 g
Avg Tumor Vol (T/C) [6, 16]: 0.402
mortality ([6]; Table 11, 2.0 mg/kg i.p. Q.D.X5): One of 5 mice died on day 7
AWC (average weight change) [6, 17]: -1.8 g
Avg Tumor Vol (T/C) [6, 17]: 0.286
AWC (average weight change) [6, 18]: 1.6 g
Avg Tumor Vol (T/C) [6, 18]: 0.485
AWC (average weight change) (sarcoma 180; [19]): -0.6 g
Avg Tumor Volume (T/C) (sarcoma 180; [19]): 0.650
AWC (average weight change) (sarcoma 180; [20]): +0.2 g
Avg Tumor Volume (T/C) (sarcoma 180; [20]): 0.814
AWC (average weight change) (sarcoma 180; [21]): +0.8 g
Avg Tumor Volume (T/C) (sarcoma 180; [21]): 0.538
AWC (average weight change) (sarcoma 180; [22]): -0.6 g
Avg Tumor Volume (T/C) (sarcoma 180; [22]): 0.485
AWC (average weight change) (sarcoma 180; [23]): -1.8 g
Avg Tumor Volume (T/C) (sarcoma 180; [23]): 0.249
AWC (average weight change) (sarcoma 180; [24]): -1.0 g
Avg Tumor Volume (T/C) (sarcoma 180; [24]): 0.394
